Reference: patent US8575306B2, “Target and method for inhibition of bacterial RNA polymerase” (Rutgers, The State University of New Jersey, priority 2002, dated 2013)
Where a SMILES comes first, the peptide text is derived from it.

Test system: RNAP
Assay: Cross-resistance with rifampicin
Settings: unpublished data

CC[C@H](C)[C@H](NC(=O)CNC(=O)[C@@H](NC(=O)[C@H](Cc1ccccc1)NC(=O)[C@H](Cc1ccc(O)cc1)NC(=O)[C@@H]1CCC(=O)NCC(=O)NCC(=O)N[C@@H](C)C(=O)NCC(=O)N[C@@H](Cc2c[nH]cn2)C(=O)N[C@@H](C(C)C)C(=O)N2CCC[C@H]2C(=O)N1)C(C)C)C(=O)NCC(=O)N[C@H](C(=O)N1CCC[C@H]1C(=O)N[C@H](C(=O)N[C@@H](CO)C(=O)N[C@@H](Cc1ccccc1)C(=O)N[C@@H](Cc1ccc(O)cc1)C(=O)NCC(=O)O)[C@@H](C)CC)[C@@H](C)O [MccJ25] (HELM PEPTIDE1{G.G.A.G.H.V.P.E.Y.F.V.G.I.G.T.P.I.S.F.Y.G}$PEPTIDE1,PEPTIDE1,1:R1-8:R3$$$V2.0)
cross-resistance with rifampicin: do not exhibit cross-resistance
